# From patent US9632085B2, “Rapid antibiotic susceptibility testing” (PRESIDENT AND FELLOWS OF HARVARD COLLEGE, priority 2012, dated 2017)
# Assays:
# E. coli = assay: Antibiotic susceptibility from single bacterium: FcMBL bead capture, gel matrix, resazurin/Sytox Green 11 live-dead imaging; type: cell-based; conditions: kanamycin at 50 μg/ml in BHI; captured E. coli grown in gel matrix; time after antibiotic addition
# Procedure: Bacteria in a biological sample were captured by FcMBL coated magnetic beads. The bead/bacteria were washed and added to a microscope compatible surface (for example, plasma treated coverslip or glass bottom microplates) and immobilized by an underlying magnet. A low melt agarose gel 37° C. containing growth media (BHI), resazurin (a stain for labeling live cells), and Sytox Green 11 (a stain for labeling dead cells) was overlaid on the bacteria-bound FcMBL magnetic beads to immobilize and/or secure the bacteria in place. In some embodiments where the bead/bacteria were spotted on glass bottom microplates, the wells were filled with growth medium containing fluorescent stains for live and/or dead cells. The captured bacteria were incubated on the slide or in the wells for about 1-2 hours at about 36-37° C. and imaged by microscopy, e.g., fluorescent microscopy. Live cells could be identified by resorufin (metabolized resazurin) stain and coordinates of the live cells could be determined and stored for iterative imaging. […] Bacteria can be observed for, for example, growth in the presence of the antibiotics (to determine the resistance of the bacteria to the particular antibiotics), cell death determined by fluorescent stain for dead cells (to determine bactericidal activity), and/or inhibition of growth (to determine bacteriostatic activity). […]
# DH5alpha E. coli = assay: FcMBL bead captured bacteria cultured 2 hours in LB with or without antibiotic, quantified on LB Agar plates; type: cell-based; conditions: 2 hours at 37° C. in LB; Carbenicillin 100 μg/ml (FIG. 3 legend); range of titers down to 300 colonies
# Procedure: In preliminary studies, the inventors tested the discrimination of the antibiotic susceptibility assay described herein with a range of titers of DH5alpha E. coli (corresponding to blood titers from a range of sepsis patients from septic shock to SIRS) FcMBL bead captured bacteria were cultured for 2 hours at 37° C. with vigorous agitation/aeration in Luria Broth (LB) or in LB supplemented with the bacteriocidal antibiotic Carbenicillin or the bacteriostatic antibiotic Spectomycin. The bacteria were quantified on LB Agar plates. In all cases, the inventors were able to discriminate between the growth in LB compared with growth in LB with bacteriocidal or bacteriostatic antibiotic (see FIG. 3).
smiles,measurement,setting,value
NC[C@H]1O[C@H](O[C@H]2[C@H](O)[C@@H](O[C@H]3O[C@H](CO)[C@@H](O)[C@H](N)[C@H]3O)[C@H](N)C[C@@H]2N)[C@H](O)[C@@H](O)[C@@H]1O [Kanamycin],color change from red-resorufin to green Sytox green 11 (cell death) observed for some of the bacteria,E. coli,≤ 5 min
same,complete effect for all cells in the tracked fields of vision,E. coli,30 to 40 min
CC1(C)S[C@@H]2[C@H](NC(=O)C(C(=O)O)c3ccccc3)C(=O)N2[C@H]1C(=O)O (stereo partly drawn) [Carbenicillin],bacterial counts compared with LB and LB with bacteriostatic antibiotic,DH5alpha E. coli,lowest of the three conditions tested
